Laboratory results: PubChem BioAssay (NCI)
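Test compounds were applied to cells in 96-well plates for 48 hours at 5 doses. GI50 = concentration required for 50% inhibition of growth. TGI: total growth inhibition.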

Tests used:
Experiment in all cases: growth of human tumour cells (NCI), 48 h
[1] = system: OVCAR-4 ovarian
[2] = system: K-562 leukemia
[3] = system: EKVX NSCLC
[4] = system: NCI-H23 lung
[5] = system: IGROV1 ovarian
[6] = system: HCT-15 colon
[7] = system: LOX IMVI melanoma
[8] = system: SF-295 CNS
[9] = system: MDA-MB-468 breast
[10] = system: SNB-75 CNS
[11] = system: OVCAR-5 ovarian
[12] = system: SF-539 CNS
[13] = system: SK-MEL-5 melanoma
[14] = system: SK-MEL-2 melanoma
[15] = system: OVCAR-3 ovarian
[16] = system: KM12 colon
[17] = system: SK-OV-3 ovarian
[18] = system: NCI-H226 lung
[19] = system: HCT-116 colon
[20] = system: TK-10 renal
[21] = system: A498 renal
[22] = system: BT-549 breast
[23] = system: HL-60(TB) leukemia
[24] = system: MALME-3M melanoma
[25] = system: CAKI-1 renal
[26] = system: COLO 205 colon
[27] = system: MOLT-4 leukemia
[28] = system: HS 578T breast
[29] = system: DU-145 prostate
[30] = system: UACC-62 melanoma
[31] = system: SK-MEL-28 melanoma
[32] = system: MDA-MB-435
[33] = system: NCI-H460 lung
[34] = system: ACHN renal
[35] = system: SW-620 colon
[36] = system: UO-31 renal
[37] = system: CCRF-CEM leukemia
[38] = system: OVCAR-8 ovarian
[39] = system: MDA-MB-231 breast
[40] = system: U251 CNS
[41] = system: M14 melanoma
[42] = system: MCF7 breast
[43] = system: PC-3 prostate
[44] = system: T-47D breast
[45] = system: SR leukemia
[46] = system: SN12C renal
[47] = system: 786-0 renal
[48] = system: SF-268 CNS
[49] = system: UACC-257 melanoma
[50] = system: NCI/ADR-RES ovarian
[51] = system: A549 NSCLC
[52] = system: RXF 393 renal
[53] = system: NCI-H522 lung
[54] = system: HOP-62 NSCLC
[55] = system: HOP-92 NSCLC
[56] = system: SNB-19 CNS
[57] = system: HT29 colon
[58] = system: HCC-2998 colon
[59] = system: RPMI-8226 leukemia

Compound: O=C(CNc1nc(-c2ccccc2)cs1)Nc1ccc([N+](=O)[O-])cc1
- GI50 [1]: 3.52 µM
- TGI [1]: 12.8 µM
- GI50 [2]: 3.26 µM
- TGI [2]: > 100 µM
- GI50 [3]: 3.8 µM
- TGI [3]: 14.6 µM
- GI50 [4]: 3.32 µM
- TGI [4]: 13.7 µM
- GI50 [5]: 3.84 µM
- TGI [5]: 16 µM
- GI50 [6]: 3.47 µM
- TGI [6]: 13.1 µM
- GI50 [7]: 2.2 µM
- TGI [7]: 11.1 µM
- GI50 [8]: 8.63 µM
- TGI [8]: 21.6 µM
- GI50 [9]: 1.55 µM
- TGI [9]: 3.16 µM
- GI50 [10]: 3.16 µM
- TGI [10]: 15.5 µM
- GI50 [11]: 7.22 µM
- TGI [11]: 20.1 µM
- GI50 [12]: 3.19 µM
- TGI [12]: 10.2 µM
- GI50 [13]: 5.82 µM
- TGI [13]: 18.6 µM
- GI50 [14]: 14.2 µM
- TGI [14]: 30.5 µM
- GI50 [15]: 3.65 µM
- TGI [15]: 13.3 µM
- GI50 [16]: 8.27 µM
- TGI [16]: 20.7 µM
- GI50 [17]: 16.4 µM
- TGI [17]: 40.1 µM
- GI50 [18]: 12.5 µM
- TGI [18]: 28.3 µM
- GI50 [19]: 3.22 µM
- TGI [19]: 14.2 µM
- GI50 [20]: 11.1 µM
- TGI [20]: 24.2 µM
- GI50 [21]: 16.9 µM
- TGI [21]: 32.3 µM
- GI50 [22]: 2.35 µM
- TGI [22]: 10.1 µM
- GI50 [23]: 2.97 µM
- TGI [23]: 10.6 µM
- GI50 [24]: 2.29 µM
- TGI [24]: 6.21 µM
- GI50 [25]: 5.26 µM
- TGI [25]: 18.3 µM
- GI50 [26]: 4.59 µM
- TGI [26]: 15.9 µM
- GI50 [27]: 3.66 µM
- TGI [27]: 23 µM
- GI50 [28]: 10.2 µM
- TGI [28]: > 100 µM
- GI50 [29]: 10.9 µM
- TGI [29]: 25.4 µM
- GI50 [30]: 4.41 µM
- TGI [30]: 17 µM
- GI50 [31]: 10.3 µM
- TGI [31]: 21.9 µM
- GI50 [32]: 6.79 µM
- TGI [32]: 19.2 µM
- GI50 [33]: 10.2 µM
- TGI [33]: 23.8 µM
- GI50 [34]: 2.39 µM
- TGI [34]: 6.98 µM
- GI50 [35]: 5.01 µM
- TGI [35]: 18 µM
- GI50 [36]: 4.58 µM
- TGI [36]: 18.1 µM
- GI50 [37]: 2.71 µM
- TGI [37]: 13.4 µM
- GI50 [38]: 11.1 µM
- TGI [38]: 28.2 µM
- GI50 [39]: 3.07 µM
- TGI [39]: 12.5 µM
- GI50 [40]: 2.85 µM
- TGI [40]: 11.1 µM
- GI50 [41]: 5.07 µM
- TGI [41]: 19.7 µM
- GI50 [42]: 2.9 µM
- TGI [42]: 12.1 µM
- GI50 [43]: 4.75 µM
- TGI [43]: 23.2 µM
- GI50 [44]: 4.23 µM
- TGI [44]: 21.3 µM
- GI50 [45]: 6.62 µM
- TGI [45]: 41.3 µM
- GI50 [46]: 3.37 µM
- TGI [46]: 13.6 µM
- GI50 [47]: 4.1 µM
- TGI [47]: 14.1 µM
- GI50 [48]: 4.82 µM
- TGI [48]: 29.5 µM
- GI50 [49]: 8.41 µM
- TGI [49]: 21.8 µM
- GI50 [50]: 3.77 µM
- TGI [50]: 20.4 µM
- GI50 [51]: 9.71 µM
- TGI [51]: 24.4 µM
- GI50 [52]: 2.77 µM
- GI50 [53]: 1.9 µM
- TGI [53]: 3.92 µM
- GI50 [54]: 14.4 µM
- TGI [54]: 35 µM
- GI50 [55]: 6.65 µM
- TGI [55]: 25.1 µM
- GI50 [56]: 10.7 µM
- TGI [56]: 22.5 µM
- GI50 [57]: 3.73 µM
- TGI [57]: 15.8 µM
- GI50 [58]: 3.5 µM
- TGI [58]: 12.9 µM
- GI50 [59]: 3.25 µM
- TGI [59]: 19.8 µM

Compound: CN1CCN(c2ccc(Nc3nc(N4CCN(S(=O)(=O)c5ccc(F)cc5)CC4)c4sccc4n3)cc2)CC1
- GI50 [1]: 2 µM
- TGI [1]: 4.2 µM
- GI50 [2]: 2.13 µM
- TGI [2]: 5.73 µM
- GI50 [3]: 3.95 µM
- TGI [3]: 22.9 µM
- GI50 [4]: 4.35 µM
- TGI [4]: 18.1 µM
- GI50 [5]: 2.19 µM
- TGI [5]: 4.74 µM
- GI50 [6]: 1.67 µM
- TGI [6]: 3.15 µM
- GI50 [9]: 1.5 µM
- TGI [9]: 2.89 µM
- GI50 [10]: 11 µM
- TGI [10]: 26.8 µM
- GI50 [11]: 2.36 µM
- TGI [11]: 5.94 µM
- GI50 [12]: 1.75 µM
- TGI [12]: 3.18 µM
- GI50 [13]: 1.68 µM
- TGI [13]: 3.05 µM
- GI50 [14]: 19.7 µM
- TGI [14]: 39.2 µM
- GI50 [15]: 1.91 µM
- TGI [15]: 3.51 µM
- GI50 [16]: 2.02 µM
- TGI [16]: 3.97 µM
- GI50 [18]: 18.7 µM
- TGI [18]: 48.2 µM
- GI50 [20]: 2.61 µM
- TGI [20]: 7.37 µM
- GI50 [21]: 19.2 µM
- TGI [21]: 34.5 µM
- GI50 [22]: 17.8 µM
- TGI [22]: 53.1 µM
- GI50 [23]: 2.07 µM
- TGI [23]: 4.25 µM
- GI50 [24]: 1.72 µM
- TGI [24]: 3.15 µM
- GI50 [25]: 2.98 µM
- TGI [25]: 10.1 µM
- GI50 [27]: 2.45 µM
- TGI [27]: 6.05 µM
- GI50 [28]: 17.8 µM
- TGI [28]: 55.4 µM
- GI50 [29]: 1.97 µM
- TGI [29]: 3.76 µM
- GI50 [30]: 1.71 µM
- TGI [30]: 3.15 µM
- GI50 [31]: 1.68 µM
- TGI [31]: 3.15 µM
- GI50 [32]: 1.77 µM
- TGI [32]: 3.26 µM
- GI50 [33]: 1.86 µM
- TGI [33]: 3.45 µM
- GI50 [35]: 1.8 µM
- TGI [35]: 3.33 µM
- GI50 [36]: 13.4 µM
- TGI [36]: 29.1 µM
- GI50 [37]: 2.39 µM
- TGI [37]: 6.78 µM
- GI50 [39]: 1.9 µM
- TGI [39]: 3.4 µM
- GI50 [41]: 1.84 µM
- TGI [41]: 3.56 µM
- GI50 [42]: 1.66 µM
- TGI [42]: 3.18 µM
- GI50 [43]: 2.13 µM
- TGI [43]: 5.11 µM
- GI50 [45]: 2.01 µM
- TGI [45]: 4.85 µM
- GI50 [46]: 1.73 µM
- TGI [46]: 3.25 µM
- GI50 [49]: 1.58 µM
- TGI [49]: 3.19 µM
- GI50 [50]: 2 µM
- TGI [50]: 4.42 µM
- GI50 [51]: 1.87 µM
- TGI [51]: 4.44 µM
- GI50 [52]: 1.61 µM
- TGI [52]: 3.14 µM
- GI50 [53]: 1.64 µM
- TGI [53]: 3.12 µM
- GI50 [54]: 11.5 µM
- TGI [54]: > 100 µM
- GI50 [55]: 7.3 µM
- TGI [55]: 24.1 µM
- GI50 [56]: 2.64 µM
- TGI [56]: 8.71 µM
- GI50 [57]: 1.83 µM
- TGI [57]: 3.6 µM
- GI50 [58]: 1.69 µM
- TGI [58]: 3.23 µM
- GI50 [59]: 2.28 µM
- TGI [59]: 4.98 µM
